The source of these data is paper PMC7763113, “Design, synthesis, cytotoxic activity, and apoptosis inducing effects of 4- and N-substituted benzoyltaurinamide derivatives” (Turkish Journal of Chemistry, 2020).

Each structure is given as a SMILES string. Entries after “also recorded” stand apart in the source; their conditions may differ. Where two headings read alike, the source gives them in different places.

In data set [1] the test system is SH-SY5Y human neuroblastoma cells. In words: MTT cytotoxicity assay, SH-SY5Y. Conditions: mean ± SD, read-out: Cytotoxic activity IC50, SH-SY5Y. The format is cell-based. From the text: (§1) The human neuroblastoma cells (SH-SY5Y), triple-negative breast cancer cells (MDA-MB-231), and human pancreatic cancer cells (Panc1) used in this study were purchased from the American Type Culture Collection (ATCC). The cells were suspended in complete Dulbecco’s modified Eagle medium (DMEM) (Life Technologies, Gibco BRL, Grand Island, NY) supplemented with 10% fetal bovine serum (FBS, Hyclone), 1% penicillin and streptomycin (100 U/mL, Invitrogen) and plated in cell culture dishes. The cultures were maintained at 37 °C in a 5% CO2 95% humidified atmosphere. After reaching 85% confluence, the cells were transferred to 96-well plates or culture dishes. For MTT assays, the cells were seeded into 96-well cell culture plates at a density of 2 × 10^3 cells per well and allowed to adhere for 24 h. The cells were treated with fresh medium containing experimental compounds (100, 10, 1 µM) and incubated in a 5% CO2 incubator for 48 and 72 h. For protein analysis, the cells were seeded into 6-well cell culture plates at a density of 0.5 x 10^6 cells/well and allowed to adhere to the surface for 24 h. The stock solutions of the test compounds (5 mM) were prepared in sterile DMSO, and these stocks were then appropriately diluted with the complete culture medium. DMSO levels were maintained below 1% in the test concentrations.
(§2) Briefly, following exposures, MTT (at a final concentration of 0.5 mg/mL) was added to each well, and plates were incubated for 2 h at 37 °C in a 5% CO2 humidified incubator. The reaction mixture was removed, and DMSO was added to each well. The plates were shaken at room temperature, and the absorbance was measured at 570 nm and 630 nm using a microplate reader (VersaMax, Molecular Devices, USA). Percent survival was plotted relative to vehicle control cells, which were normalized to 100% survival.
(In general: Tetrazolium dyes change colour on reduction, which living cells bring about.)

Data set [2] concerns PANC-1 human pancreatic cancer cells. In words: MTT cytotoxicity assay, PANC-1. The format is cell-based. Conditions: mean ± SD, read-out: Cytotoxic activity IC50, PANC-1.
From the text: as §1, §2

Data set [3] has as its system MDA-MB-231 triple-negative breast cancer cells. Briefly: MTT cytotoxicity assay, MDA-MB-231. The format is cell-based, human. Conditions: mean ± SD, read-out: Cytotoxic activity IC50, MDA-MB-231.
From the text: as §1, §2

Data set [4] is described as follows: MTT cytotoxicity assay, MCF-10a (nontumorigenic). The format is cell-based. Conditions: MCF-10a nontumorigenic mammary cells, MCF-10a nontumorigenic human mammary cell line, mean ± SD, read-out: Cytotoxic activity IC50, MCF-10a.
From the text: [The source words this procedure for another cell line and reports this cell line under the same test.] as §1, §2

Data set [5] has as its system BAX, Bcl-2, Bcl-xL, caspase-3 and caspase-9 expression in MDA-MB-231 cell line. In words: Western blot of apoptotic proteins, MDA-MB-231. The format is cell-based, human. The note with it: for BAX protein levels: Western blot, after only 24 h; for increase of caspase-9 activity: after only 48 h, relative to control. The protocol: (§3) The cells (0.5 × 10^6 cell/well) were seeded into 6 well plates and incubated for 24 h, and then treated with selected experimental compounds for 24 h and 48 h. Following incubation, the cells were washed with ice-cold 1X PBS and lysed in 1X cell lysis buffer. These lysates were quantified using the BCA protein assay. Then, the cell lysates were analyzed by western blot.
(§4) On a 12% (w/v) tris-glycine denaturing gel, 20 μg protein was separated by electrophoresis, and then transferred to a PVDF membrane. After blocking, the membrane was incubated with primary antibodies, anti-Bax rabbit monoclonal antibody, anti-Bcl-2 rabbit monoclonal antibody, anti-Bcl-xL rabbit monoclonal antibody, anti-caspase-3 rabbit monoclonal antibody, and anti-caspase-9 rabbit monoclonal antibody (1:1000, Cell Signaling Technology) at 4 °C overnight. Following the incubation, the membrane was incubated with an anti-β-actin mouse monoclonal antibody (1:1000, Cell Signaling Technology) at room temperature for 1 h. After washing, the membrane was incubated with peroxidase-conjugated secondary antibodies for 1 h to visualize labeled proteins by enhanced chemiluminescence.

The subject of data set [6] is BAX, Bcl-2, Bcl-xL, caspase-3 and caspase-9 expression in PANC-1 cell line. Briefly: Western blot of apoptotic proteins, PANC-1. The note with it: at IC50, 24 and 48 h, vs control. The format is cell-based, human. The protocol: as §3, §4
For orientation: In western blotting, separated proteins are transferred to a membrane and probed.

The subject of a further data set is PANC-1 cells. Briefly: Annexin V-FITC/PI flow cytometry, PANC-1. The format is cell-based, human. The note with it: at cytotoxic concentrations, 48 h. The protocol: (§5) The cells were harvested after 48 h, washed with PBS, and analyzed using the Annexin V FITC/PI Apoptosis Detection kit (BioVision, Mountain View, CA, USA) with a benchtop flow cytometer (Accuri C6 flow cytometry, Becton Dickinson).

Another data set deals with MDA-MB-231 cells. Briefly: Annexin V-FITC/PI flow cytometry, MDA-MB-231. Type of data set: cell-based, human. Conditions: 48 h, control 1.2%. The protocol: as §5
In general terms: Flow cytometry measures light scatter and fluorescence of single cells or particles in a stream.

The subject of a further data set is SH-SY5Y cells. Briefly: Annexin V-FITC/PI flow cytometry, SH-SY5Y. The format is cell-based, human. Conditions: 48 h, control 3.2%. The protocol: as §5

Consider `O=C(NCCS(=O)(=O)N1CCOCC1)c1ccc(Cl)cc1` [Compound 6, 4-Chloro-N-(2-(morpholinosulfonyl)ethyl)benzamide], for which the melting point (as a rule, the temperature, or range, at which the solid turns liquid) lay within 162 to 163 °C. Moreover, in [1] (Homo sapiens, SH-SY5Y), the IC50 (commonly the concentration that inhibits the measured activity by half) stood at 80.6 µM. Besides, the IC50 in data set [1] was found to be 80.6 ± 1.9 µM. Moreover, the IC50 in data set [2] (Homo sapiens, PANC-1, MTT) was determined as 8.8 ± 2.1 µM. For the same compound, the IC50 in data set [3] (Homo sapiens, MDA-MB-231, MTT) came to 79.1 µM. In [3] (MTT), the IC50 is 136 ± 1.5 µM. Besides, in [4], the IC50 stood at 70.7 ± 1.8 µM. In data set [5], the BAX protein levels result was “significantly increased” and the “increase of caspase-9 activity” value worked out at 1.06 fold.
`COc1ccc(C(=O)NCCS(N)(=O)=O)cc1` [Compound 11, 4-Methoxy-N-(2-sulfamoylethyl)benzamide]: the melting point was in the range of 176 to 177 °C. In addition, the IC50 in [1] (Homo sapiens, SH-SY5Y) was determined as 237.8 ± 1.7 µM. Further, the IC50 in [2] (Homo sapiens, PANC-1, MTT) turned out to be 83.8 ± 1.5 µM. The IC50 in data set [3] (Homo sapiens, MDA-MB-231, MTT) came out at 114 ± 1.3 µM. In addition, in [4], the IC50 amounted to 81.1 ± 1.4 µM.
The like results for `Cc1ccc(C(=O)NCCS(=O)(=O)N2CCOCC2)cc1` [Compound 8, 4-Methyl-N-(2-(morpholinosulfonyl)ethyl)benzamide] were, in that order, 174.2 to 175.2 °C, 79.3 ± 1.6 µM, 120.3 ± 1.2 µM, 81.5 ± 1.2 µM and 81.4 ± 1.3 µM.
The like results for `Cc1ccc(C(=O)NCCS(N)(=O)=O)cc1` [Compound 12, 4-Methyl-N-(2-sulfamoylethyl)benzamide] were, in that order, 181 to 182 °C, 79.5 ± 1.8 µM, 44.6 ± 1.9 µM, 81 ± 1.6 µM and 106 ± 1.4 µM.
With `NS(=O)(=O)CCNC(=O)c1ccc(Cl)cc1` [Compound 10, 4-Chloro-N-(2-sulfamoylethyl)benzamide], the melting point lay in the range of 158 to 159 °C. Further, the IC50 in [1] (Homo sapiens, SH-SY5Y) worked out at 38.6 ± 1.6 µM. In addition, in data set [2] (Homo sapiens, PANC-1, MTT), the IC50 was found to be 89.1 ± 1.7 µM. For the same compound, the IC50 in [3] (Homo sapiens, MDA-MB-231, MTT) is 77 µM. Besides, the half-maximal inhibitory concentration (IC50) in data set [3] (MTT) came to 79.1 ± 1.3 µM. In addition, the IC50 in data set [4] is 172.1 ± 1.4 µM. In data set [6], the caspase-3 expression result is listed as “effectively increased”. In addition, in data set [5], the BAX protein levels entry is “significantly increased” and the “increase of caspase-9 activity” value is 1.12 fold.
Turning to `COc1ccc(C(=O)NCCS(=O)(=O)Nc2ccccc2)cc1` [Compound 3, 4-Methoxy-N-(2-(N-phenylsulfamoyl)ethyl)benzamide], the melting point is 121.3 to 122.3 °C. Moreover, the IC50 in [1] (Homo sapiens, SH-SY5Y) worked out at 57.4 ± 1.6 µM. Moreover, the IC50 in data set [2] (Homo sapiens, PANC-1, MTT) was found to be 104 ± 1.6 µM. Moreover, in data set [3] (Homo sapiens, MDA-MB-231, MTT), the IC50 is 111 ± 1.2 µM. Moreover, the IC50 in data set [4] was 98.9 ± 1.2 µM.
`COc1ccc(NS(=O)(=O)CCNC(=O)c2ccc(Cl)cc2)cc1` [Compound 14, 4-Chloro-N-(2-(N-(4-methoxyphenyl)sulfamoyl)ethyl)benzamide]: the melting point was 160 to 161 °C. Besides, in data set [1] (Homo sapiens, SH-SY5Y), the IC50 stood at 26 ± 1.4 µM. Further, the IC50 in data set [2] (Homo sapiens, PANC-1, MTT) was 22.5 ± 1.7 µM. For the same compound, in data set [3] (Homo sapiens, MDA-MB-231, MTT), the IC50 stood at 19.9 ± 1.7 µM. Also, the IC50 in data set [4] came to 109 ± 1.2 µM. In data set [6], the BAX expression entry was “increased”, the Bcl-2 expression result is reported as “decrease”, the Bcl-xL expression result is recorded as “decrease” and the caspase-3 expression result is “increased”. Moreover, the caspase-9 expression result in data set [6] is recorded as “increased”. In data set [5], the BAX protein levels entry was “significantly increased” and the “increase of caspase-9 activity” value is recorded as 1.18 fold. In the data set with PANC-1 cells, the “apoptotic cell ratios (Annexin V-FITC/PI result)” value was “no significant changes; also recorded: negative”. For the same compound, the “percent of the positive apoptotic cells” value in the data set with MDA-MB-231 cells is reported as 1.6%. For the same compound, the apoptotic cell ratios with SH-SY5Y cells is 3.8%.
`COc1ccc(NS(=O)(=O)CCNC(=O)c2ccccc2)cc1` [Compound 13, N-(2-(N-(4-methoxyphenyl)sulfamoyl)ethyl)benzamide] returned a melting point of 110 to 111 °C. In [1] (Homo sapiens, SH-SY5Y), the IC50 is 47.5 ± 1.5 µM. For the same compound, in data set [2] (Homo sapiens, PANC-1, MTT), the IC50 was determined as 17.9 ± 2.1 µM. The IC50 in data set [3] (Homo sapiens, MDA-MB-231, MTT) came out at 76.1 ± 1.6 µM. Also, in data set [4], the IC50 was 217.8 ± 1.3 µM.
The like results for `O=C(NCCS(=O)(=O)Nc1ccccc1)c1ccccc1` [Compound 1, N-(2-(N-phenylsulfamoyl)ethyl)benzamide] were, in that order, 123.7 to 124.7 °C, 92.2 ± 1.5 µM, 86.7 ± 1.4 µM, 140.4 ± 1.1 µM and 78.2 ± 1.6 µM.
In turn, `O=C(NCCS(=O)(=O)Nc1ccccc1)c1ccc(Cl)cc1` [Compound 2, 4-Chloro-N-(2-(N-phenylsulfamoyl)ethyl)benzamide] displayed a melting point of 143.8 to 144.8 °C. Besides, in data set [1] (Homo sapiens, SH-SY5Y), the IC50 was found to be 29 ± 1.5 µM. The IC50 in [2] (Homo sapiens, PANC-1, MTT) came to 86.6 µM. For the same compound, in [2] (MTT), the IC50 amounted to 86.6 ± 1.6 µM. Also, the concentration for half-maximal inhibition (IC50) in [3] (Homo sapiens, MDA-MB-231, MTT) was found to be 99.7 ± 1.1 µM. For the same compound, the IC50 in [4] is 232.9 ± 2.1 µM. Besides, in data set [6], the BAX expression entry is on record as “significantly upregulated” and the Bcl-2 expression result is “significantly upregulated”. For the same compound, the BAX protein levels entry in [5] is “significantly increased”.
In turn, `O=C(NCCS(=O)(=O)N1CCOCC1)c1ccccc1` [Compound 5, N-(2-(morpholinosulfonyl)ethyl)benzamide] yielded a melting point of 107 to 108 °C. The IC50 in [1] (Homo sapiens, SH-SY5Y) was found to be 118 ± 1.8 µM. For the same compound, the IC50 in data set [2] (Homo sapiens, PANC-1, MTT) was found to be 24.2 ± 2.1 µM. For the same compound, in [3] (Homo sapiens, MDA-MB-231, MTT), the IC50 came out at 103 ± 1.7 µM. The IC50 in [4] came out at 89.6 ± 1.5 µM.
The like results for `NS(=O)(=O)CCNC(=O)c1ccccc1` [Compound 9, N-(2-sulfamoylethyl)benzamide] were, in that order, 162 to 163 °C, 81.1 ± 2.1 µM, 85.5 ± 1.7 µM, 99.8 ± 1.7 µM and 109 ± 1.1 µM.
Compound `COc1ccc(NS(=O)(=O)CCNC(=O)c2ccc(C)cc2)cc1` [Compound 16, N-(2-(N-(4-methoxyphenyl)sulfamoyl)ethyl)-4-methylbenzamide] came in with a melting point of 127 to 128 °C. In [1] (Homo sapiens, SH-SY5Y), the 50% inhibitory concentration (IC50) amounted to 32.7 ± 1.7 µM. In addition, the IC50 in data set [2] (Homo sapiens, PANC-1, MTT) worked out at 21.4 ± 1.7 µM. In addition, the IC50 in data set [3] (Homo sapiens, MDA-MB-231, MTT) came to 15.7 ± 1.9 µM. In data set [4], the IC50 is 132.9 ± 1.2 µM.
As for `Cc1ccc(C(=O)NCCS(=O)(=O)Nc2ccccc2)cc1` [Compound 4, 4-Methyl-N-(2-(N-phenylsulfamoyl)ethyl)benzamide], the melting point fell in the range of 149.7 to 150.7 °C. Further, in data set [1] (Homo sapiens, SH-SY5Y), the IC50 was 75.9 ± 1.6 µM. The IC50 in [2] (Homo sapiens, PANC-1, MTT) is 86.6 ± 1.4 µM. In data set [3] (Homo sapiens, MDA-MB-231, MTT), the IC50 was determined as 89.7 ± 1.5 µM. In data set [4], the IC50 stood at 132 ± 1.7 µM.
